From patent US12448389B2, “BRM targeting compounds and associated methods of use” (Prelude Therapeutics Incorporated, priority 2020, dated 2025)

What was measured:
SMARCA2-HiBiT = molecular target: T1, SMARCA2-HiBiT (Homo sapiens, UniProt P51531); assay: SMARCA2 HiBiT degradation assay in HeLa cells; assay type: cell-based; conditions: 18 hours incubation; for DC50: read-out: HeLa_HiBit-SM2 DC50; for Dmax: HeLa, read-out: HeLa-HiBit-SM2 Dmax (%)
T1 construct: SMARCA2-HiBiT knock-in Hela monoclonal cell (CS302366); host or cells: HeLa monoclonal knock-in line (CRISPR HiBiT knock-in at the endogenous locus, heterozygous)
T1 sequence (P51531 whole entry): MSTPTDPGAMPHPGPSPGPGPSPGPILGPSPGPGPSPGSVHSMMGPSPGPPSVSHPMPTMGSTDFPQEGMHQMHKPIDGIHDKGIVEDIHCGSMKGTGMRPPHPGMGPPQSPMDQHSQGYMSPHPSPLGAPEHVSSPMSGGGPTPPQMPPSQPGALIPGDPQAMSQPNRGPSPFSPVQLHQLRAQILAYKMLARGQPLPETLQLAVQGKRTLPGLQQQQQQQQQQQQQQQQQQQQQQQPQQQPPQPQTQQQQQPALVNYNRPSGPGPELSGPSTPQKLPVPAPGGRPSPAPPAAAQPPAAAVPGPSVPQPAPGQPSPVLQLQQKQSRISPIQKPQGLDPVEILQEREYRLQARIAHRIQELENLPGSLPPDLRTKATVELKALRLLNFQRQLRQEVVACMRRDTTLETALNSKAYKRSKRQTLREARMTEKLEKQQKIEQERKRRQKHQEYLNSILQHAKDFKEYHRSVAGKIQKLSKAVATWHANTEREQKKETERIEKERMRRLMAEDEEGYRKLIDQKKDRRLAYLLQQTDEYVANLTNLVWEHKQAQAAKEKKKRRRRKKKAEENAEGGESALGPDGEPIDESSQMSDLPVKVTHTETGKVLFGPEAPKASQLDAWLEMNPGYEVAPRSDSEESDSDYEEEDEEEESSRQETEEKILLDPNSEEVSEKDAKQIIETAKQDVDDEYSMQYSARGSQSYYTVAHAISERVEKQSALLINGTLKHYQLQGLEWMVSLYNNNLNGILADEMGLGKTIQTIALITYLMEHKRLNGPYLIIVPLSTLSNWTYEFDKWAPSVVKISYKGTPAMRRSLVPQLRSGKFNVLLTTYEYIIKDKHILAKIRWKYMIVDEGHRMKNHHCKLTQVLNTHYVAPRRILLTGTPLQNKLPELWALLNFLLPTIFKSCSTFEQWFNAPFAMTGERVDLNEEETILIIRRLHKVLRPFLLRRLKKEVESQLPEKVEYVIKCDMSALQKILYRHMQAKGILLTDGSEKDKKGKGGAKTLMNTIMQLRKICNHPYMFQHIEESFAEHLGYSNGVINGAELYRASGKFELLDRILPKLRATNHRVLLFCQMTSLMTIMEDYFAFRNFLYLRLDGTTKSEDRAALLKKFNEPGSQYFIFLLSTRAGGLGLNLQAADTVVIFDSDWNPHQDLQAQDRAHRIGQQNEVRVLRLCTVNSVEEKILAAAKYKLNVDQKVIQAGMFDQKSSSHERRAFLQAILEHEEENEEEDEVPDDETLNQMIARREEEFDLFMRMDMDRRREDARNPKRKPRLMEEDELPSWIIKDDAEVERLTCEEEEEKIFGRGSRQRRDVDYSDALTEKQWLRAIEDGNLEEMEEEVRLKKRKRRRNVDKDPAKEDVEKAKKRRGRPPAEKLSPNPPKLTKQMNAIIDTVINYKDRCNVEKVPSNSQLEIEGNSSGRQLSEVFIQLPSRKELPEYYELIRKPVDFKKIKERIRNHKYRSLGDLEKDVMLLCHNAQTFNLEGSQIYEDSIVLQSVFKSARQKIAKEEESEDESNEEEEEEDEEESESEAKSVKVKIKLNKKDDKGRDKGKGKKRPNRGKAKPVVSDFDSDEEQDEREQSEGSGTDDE
In short: (§1)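 HeLa monoclonal lines with heterozygous HiBiT knock-in were seeded at 2500 cells/well in EMEM with 10% FBS and treated with compound for 18 h at 37 °C. Remaining tagged protein was measured by Nano-Glo HiBiT lytic luminescence after 30–60 min at RT, and values came from curve fitting.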

SMARCA4-HiBiT = molecular target: T2, SMARCA4-HiBiT (Homo sapiens, UniProt P51532); assay: SMARCA4 HiBiT degradation assay in HeLa cells; assay type: cell-based; conditions: 18 hours incubation; for DC50: read-out: HeLa-HiBit-SM4 DC50; for Dmax: HeLa, read-out: HeLa-HiBit-SM4 Dmax (%)
T2 construct: SMARCA4-HiBiT knock-in Hela monoclonal cell (CS3023226); host or cells: HeLa monoclonal knock-in line (CRISPR HiBiT knock-in at the endogenous locus, heterozygous)
T2 sequence (P51532 whole entry): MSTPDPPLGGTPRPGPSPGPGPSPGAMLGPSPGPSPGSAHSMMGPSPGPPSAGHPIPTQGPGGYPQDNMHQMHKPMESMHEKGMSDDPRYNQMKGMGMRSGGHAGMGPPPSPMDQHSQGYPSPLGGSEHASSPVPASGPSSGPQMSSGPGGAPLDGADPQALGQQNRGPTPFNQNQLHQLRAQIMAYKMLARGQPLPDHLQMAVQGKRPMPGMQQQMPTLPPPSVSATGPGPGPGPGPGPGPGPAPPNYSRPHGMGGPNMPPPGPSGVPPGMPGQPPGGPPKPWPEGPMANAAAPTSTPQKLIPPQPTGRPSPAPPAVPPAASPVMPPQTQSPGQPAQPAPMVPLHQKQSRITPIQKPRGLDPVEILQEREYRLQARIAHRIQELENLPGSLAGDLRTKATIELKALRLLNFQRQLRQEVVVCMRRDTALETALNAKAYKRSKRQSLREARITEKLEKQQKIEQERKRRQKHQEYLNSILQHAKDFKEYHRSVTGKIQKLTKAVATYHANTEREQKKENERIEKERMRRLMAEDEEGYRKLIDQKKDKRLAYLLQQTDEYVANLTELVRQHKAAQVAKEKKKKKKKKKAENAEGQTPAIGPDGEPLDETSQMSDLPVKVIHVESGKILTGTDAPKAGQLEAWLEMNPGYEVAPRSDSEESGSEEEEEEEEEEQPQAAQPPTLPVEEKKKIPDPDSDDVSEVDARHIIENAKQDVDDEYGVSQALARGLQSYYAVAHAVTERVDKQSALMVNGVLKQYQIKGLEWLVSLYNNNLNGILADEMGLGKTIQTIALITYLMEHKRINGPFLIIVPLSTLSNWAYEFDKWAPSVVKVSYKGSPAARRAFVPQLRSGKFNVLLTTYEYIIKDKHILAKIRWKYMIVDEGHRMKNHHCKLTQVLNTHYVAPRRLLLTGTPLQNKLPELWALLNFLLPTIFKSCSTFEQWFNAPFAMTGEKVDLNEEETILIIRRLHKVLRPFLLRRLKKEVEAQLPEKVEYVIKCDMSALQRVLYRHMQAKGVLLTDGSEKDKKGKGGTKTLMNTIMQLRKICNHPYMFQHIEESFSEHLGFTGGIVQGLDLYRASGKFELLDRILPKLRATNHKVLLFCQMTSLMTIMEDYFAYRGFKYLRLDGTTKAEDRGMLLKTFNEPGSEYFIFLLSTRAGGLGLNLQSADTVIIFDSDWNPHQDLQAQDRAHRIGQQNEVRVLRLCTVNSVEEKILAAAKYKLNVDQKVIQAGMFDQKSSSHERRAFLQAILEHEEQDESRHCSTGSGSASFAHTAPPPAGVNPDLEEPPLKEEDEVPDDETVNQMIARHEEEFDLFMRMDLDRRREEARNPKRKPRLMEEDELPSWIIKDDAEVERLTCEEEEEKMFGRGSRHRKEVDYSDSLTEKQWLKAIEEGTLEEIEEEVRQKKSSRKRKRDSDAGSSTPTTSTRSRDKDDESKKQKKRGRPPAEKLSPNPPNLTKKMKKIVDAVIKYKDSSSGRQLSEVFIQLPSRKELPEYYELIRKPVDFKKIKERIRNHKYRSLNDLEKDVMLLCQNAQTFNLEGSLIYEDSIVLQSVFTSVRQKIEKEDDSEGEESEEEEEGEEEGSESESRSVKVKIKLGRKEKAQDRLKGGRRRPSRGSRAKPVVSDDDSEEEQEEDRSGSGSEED
In short: as §1

| SMILES | DC50 (SMARCA2-HiBiT) [nM] | Dmax (SMARCA2-HiBiT) [%] | DC50 (SMARCA4-HiBiT) [nM] | Dmax (SMARCA4-HiBiT) [%] | HeLa-HiBit-SM2 Dmax (%) (SMARCA2-HiBiT) | HeLa-HiBit-SM4 Dmax (%) (SMARCA4-HiBiT) |
| --- | --- | --- | --- | --- | --- | --- |
| C[C@@H]1CN(CC2CCN(c3ccc4c(c3)C(=O)N(C3CCC(=O)NC3=O)C4)CC2)CCN1C(=O)N1CCN2c3cc(-c4ccccc4O)nnc3NC[C@H]2C1 (stereo partly drawn) [Example 114, 3-(6-(4-(((R)-4-((S)-2-(2-hydroxyphenyl)-6,6a,7,8,9,10-hexahydro-5H-pyrazino[1′,2′:4,5]pyrazino[2,3-c]pyridazine-8-carbonyl)-3-methylpiperazin-1-yl)methyl)piperidin-1-yl)-1-oxoisoindolin-2-yl)piperidine-2,6-dione] | < 10 | > 85 | < 10 | 75 to 85 |  |  |
| O=C1CCC(N2Cc3cc(CN4CCC(N5CCC(N6CCN7c8cc(-c9ccccc9O)nnc8NC[C@H]7C6)CC5)CC4)ccc3C2=O)C(=O)N1 (stereo partly drawn) [Example 63, 3-(5-((4-((S)-2-(2-hydroxyphenyl)-5,6,6a,7,9,10-hexahydro-8H-pyrazino[1′,2′:4,5]pyrazino[2,3-c]pyridazin-8-yl)-[1,4′-bipiperidin]-1′-yl)methyl)-1-oxoisoindolin-2-yl)piperidine-2,6-dione] | < 10 | > 85 | < 10 | > 85 |  |  |
| CC1CC(C(=O)N2CCN3c4cc(-c5ccccc5O)nnc4NC[C@H]3C2)CCN1CC1CCN(c2ccc3c(c2)C(=O)N(C2CCC(=O)NC2=O)C3)CC1 (stereo partly drawn) [Example 265, 3-(6-(4-((4-((S)-2-(2-hydroxyphenyl)-6,6a,7,8,9,10-hexahydro-5H-pyrazino[1′,2′:4,5]pyrazino[2,3-c]pyridazine-8-carbonyl)-2-methylpiperidin-1-yl)methyl)piperidin-1-yl)-1-oxoisoindolin-2-yl)piperidine-2,6-dione] | < 10 | 75 to 85 | 10 to 100 | 75 to 85 |  |  |
| COC1(CN2C[C@@H]3[C@@H](CN4CCN5c6cc(-c7ccccc7O)nnc6NC[C@H]5C4)[C@@H]3C2)CCN(c2ccc3c(c2)C(=O)N(C2CCC(=O)NC2=O)C3)CC1 (stereo partly drawn) [Example 252, 3-(6-(4-(((1R,5S,6s)-6-(((S)-2-(2-hydroxyphenyl)-5,6,6a,7,9,10-hexahydro-8H-pyrazino[1′,2′:4,5]pyrazino[2,3-c]pyridazin-8-yl)methyl)-3-azabicyclo[3.1.0]hexan-3-yl)methyl)-4-methoxypiperidin-1-yl)-1-oxoisoindolin-2-yl)piperidine-2,6-dione] | < 10 | > 85 | < 10 | > 85 |  |  |
| O=C1CCC(N2C(=O)c3ccc(N4CCC(NC56CC(CN7CCN8c9cc(-c%10ccccc%10O)nnc9NC[C@H]8C7)(C5)C6)CC4)cc3C2=O)C(=O)N1 (stereo partly drawn) [Example 135, 2-(2,6-dioxopiperidin-3-yl)-5-(4-((3-(((S)-2-(2-hydroxyphenyl)-5,6,6a,7,9,10-hexahydro-8H-pyrazino[1′,2′:4,5]pyrazino[2,3-c]pyridazin-8-yl)methyl)bicyclo[1.1.1]pentan-1-yl)amino)piperidin-1-yl)isoindoline-1,3-dione] | < 10 | 75 to 85 | < 10 | 50 to 75 |  |  |
| O=C1CCC(N2C(=O)c3ccc(N4CCN(C5CCN(CCN6CCN7c8cc(-c9ccccc9O)nnc8NC[C@H]7C6)C5)CC4)cc3C2=O)C(=O)N1 (stereo partly drawn) [Example 221, 2-(2,6-dioxopiperidin-3-yl)-5-(4-(1-(2-((S)-2-(2-hydroxyphenyl)-5,6,6a,7,9,10-hexahydro-8H-pyrazino[1′,2′:4,5]pyrazino[2,3-c]pyridazin-8-yl)ethyl)pyrrolidin-3-yl)piperazin-1-yl) isoindoline-1,3-dione] | < 10 | 75 to 85 | < 10 | 50 to 75 |  |  |
| O=C1CCC(N2C(=O)c3ccc(N4CC[C@H](CN5CCC(C(=O)N6CCN7c8cc(-c9cc(F)ccc9O)nnc8NC[C@H]7C6)CC5)[C@@H](F)C4)cc3C2=O)C(=O)N1 (stereo partly drawn) [Example 280, 2-(2,6-dioxopiperidin-3-yl)-5-((3R,4R)-3-fluoro-4-((4-((S)-2-(5-fluoro-2-hydroxyphenyl)-6,6a,7,8,9,10-hexahydro-5H-pyrazino[1′,2′:4,5]pyrazino[2,3-c]pyridazine-8-carbonyl)piperidin-1-yl)methyl)piperidin-1-yl)isoindoline-1,3-dione] | < 10 |  | < 10 |  | A (A=Dmax>85%) | B (B=75%<Dmax<=85%) |
| O=C1CCC(N2C(=O)c3ccc(N4CCCC5(CCN(CCN6CCN7c8cc(-c9ccccc9O)nnc8NC[C@H]7C6)CC5)C4)cc3C2=O)C(=O)N1 (stereo partly drawn) [Example 94, 2-(2,6-dioxopiperidin-3-yl)-5-(9-(2-((S)-2-(2-hydroxyphenyl)-5,6,6a,7,9,10-hexahydro-8H-pyrazino[1′,2′:4,5]pyrazino[2,3-c]pyridazin-8-yl)ethyl)-2,9-diazaspiro [5.5]undecan-2-yl) isoindoline-1,3-dione] | < 10 | 50 to 75 | < 10 | 50 to 75 |  |  |

Other lines, results leading:

| DC50 (SMARCA2-HiBiT) [nM] | Dmax (SMARCA2-HiBiT) [%] | DC50 (SMARCA4-HiBiT) [nM] | Dmax (SMARCA4-HiBiT) [%] | HeLa-HiBit-SM2 Dmax (%) (SMARCA2-HiBiT) | HeLa-HiBit-SM4 Dmax (%) (SMARCA4-HiBiT) | SMILES |
| --- | --- | --- | --- | --- | --- | --- |
| < 10 | 50 to 75 | 10 to 100 | 50 to 75 |  |  | O=C1CCC(N2C(=O)c3ccc(N4CCC(CN5CCN(C(=O)N6CCN7c8cc(-c9ccccc9O)nnc8NC[C@H]7C6)CC5)C(F)(F)C4)cc3C2=O)C(=O)N1 (stereo partly drawn) [Example 195, 5-[3,3-difluoro-4-[[4-[(10S)-4-(2-hydroxyphenyl)-1,5,6,8,12-pentazatricyclo[8.4.0.02,7]tetradeca-2(7),3,5-trien-12-carbonyl]piperazin-1-yl]methyl]piperidin-1-yl]-2-(2,6-dioxopiperidin-3-yl) isoindole-1,3-dione] |
| < 10 | > 85 | < 10 | 50 to 75 |  |  | O=C1CCC(N2C(=O)c3ccc(N4CCC(CN5C[C@@H]6[C@H](C5)[C@H]6CN5CCN6c7cc(-c8ccccc8O)nnc7NC[C@H]6C5)CC4)cc3C2=O)C(=O)N1 (stereo partly drawn) [Example 42, 2-(2,6-dioxopiperidin-3-yl)-5-(4-(((1R,5S,6r)-6-(((S)-2-(2-hydroxyphenyl)-5,6,6a,7,9,10-hexahydro-8H-pyrazino[1′,2′:4,5]pyrazino[2,3-c]pyridazin-8-yl)methyl)-3-azabicyclo[3.1.0]hexan-3-yl)methyl)piperidin-1-yl)isoindoline-1,3-dione] |
| < 10 | > 85 | < 10 | > 85 |  |  | CN(C(=O)N1CCN2c3cc(-c4ccccc4O)nnc3NC[C@H]2C1)C1CCN(CC2CCN(c3ccc4c(c3)C(=O)N(C3CCC(=O)NC3=O)C4=O)CC2)CC1 (stereo partly drawn) [Example 138, (6aS)-N-(1-((1-(2-(2,6-dioxopiperidin-3-yl)-1,3-dioxoisoindolin-5-yl)piperidin-4-yl)methyl)piperidin-4-yl)-2-(2-hydroxyphenyl)-N-methyl-5,6,6a,7,9,10-hexahydro-8H-pyrazino[1′,2′:4,5]pyrazino[2,3-c]pyridazine-8-carboxamide] |
| < 10 | 75 to 85 | 10 to 100 | 75 to 85 |  |  | O=C1CCC(N2C(=O)c3ccc(N4CCC(CN5CCC(CN6CCN7c8cc(-c9ccccc9O)nnc8NC[C@H]7C6)C(F)(F)C5)CC4)cc3C2=O)C(=O)N1 (stereo partly drawn) [Example 260, 5-(4-((3,3-difluoro-4-(((S)-2-(2-hydroxyphenyl)-5,6,6a,7,9,10-hexahydro-8H-pyrazino[1′,2′:4,5]pyrazino[2,3-c]pyridazin-8-yl)methyl)piperidin-1-yl)methyl)piperidin-1-yl)-2-(2,6-dioxopiperidin-3-yl)isoindoline-1,3-dione] |
